By IC50 is commonly meant the midpoint of a concentration-inhibition curve. Read a high IC50 as weaker potency.

Among the data in patent US12522602B2, “Derivatives having 2,3-dihydro-1H-indene or 2,3-dihydrobenzofuran moiety or pharmaceutically acceptable salt thereof and pharmaceutical compositions comprising the same” (YUHAN CORPORATION, priority 2019, dated 2026) are IC50 values, retold here.

The subject of this assay is GM1 production in Jurkat cells. Briefly: cells. The assay is classed as cell-based. The note with it: Homo sapiens, Jurkat, 72 h.
Consider `CCOc1ccc(-c2cc3c(cc2F)C(NC(=O)O[C@@H]2CN4CCC2CC4)C(C)(C)C3)cc1` (stereo partly drawn) [Example 356, (S)-quinuclidin-3-yl (5-(4-ethoxyphenyl)-6-fluoro-2,2-dimethyl-2,3-dihydro-1H-inden-1-yl)carbamate], for which the midpoint of inhibition, the IC50, lay at 0.0216 µM.

`CCCOc1ccc(-c2cc3c(cc2F)C(NC(=O)O[C@@H]2CN4CCC2CC4)C(C)(C)C3)cc1` (stereo partly drawn) [Example 357, (S)-quinuclidin-3-yl (6-fluoro-2,2-dimethyl-5-(4-propoxyphenyl)-2,3-dihydro-1H-inden-1-yl)carbamate] returned a half-maximal inhibitory concentration (IC50) of 0.0053 µM.

Molecule `CC(C)Oc1ccc(-c2cc3c(cc2F)C(NC(=O)O[C@@H]2CN4CCC2CC4)C(C)(C)C3)cc1` (stereo partly drawn) [Example 358, (S)-quinuclidin-3-yl (6-fluoro-5-(4-isopropoxyphenyl)-2,2-dimethyl-2,3-dihydro-1H-inden-1-yl)carbamate] showed an IC50 of 0.0077 µM.

On to `CC(C)Oc1ccc(-c2cc3c(cc2F)C(NC(=O)O[C@@H]2CN4CCC2CC4)C(C)(C)C3)cc1Cl` (stereo partly drawn) [Example 359, (S)-quinuclidin-3-yl (5-(3-chloro-4-isopropoxyphenyl)-6-fluoro-2,2-dimethyl-2,3-dihydro-1H-inden-1-yl)carbamate], for which 0.0331 µM corresponded to half-maximal inhibition (IC50).

For `COc1ccc(-c2cc3c(cc2F)C(NC(=O)O[C@@H]2CN4CCC2CC4)C(C)(C)C3)c(F)c1` (stereo partly drawn) [Example 360, (S)-quinuclidin-3-yl (6-fluoro-5-(2-fluoro-4-methoxyphenyl)-2,2-dimethyl-2,3-dihydro-1H-inden-1-yl)carbamate], it took 0.039 µM to reach half-maximal inhibition (IC50). This IC50 and that of the molecule before are within 1.5-fold of each other.

In turn, `CCCCOc1ccc(-c2cc3c(cc2F)C(NC(=O)O[C@@H]2CN4CCC2CC4)C(C)(C)C3)cc1` (stereo partly drawn) [Example 361, (S)-quinuclidin-3-yl (5-(4-butoxyphenyl)-6-fluoro-2,2-dimethyl-2,3-dihydro-1H-inden-1-yl)carbamate] registered a 50% inhibitory concentration (IC50) of 0.0021 µM.

`CC(C)COc1ccc(-c2cc3c(cc2F)C(NC(=O)O[C@@H]2CN4CCC2CC4)C(C)(C)C3)cc1` (stereo partly drawn) [Example 362, (S)-quinuclidin-3-yl (6-fluoro-5-(4-isobutoxyphenyl)-2,2-dimethyl-2,3-dihydro-1H-inden-1-yl)carbamate] gave a half-inhibitory concentration (IC50) of 0.0025 µM.

Turning to `CC1(C)Cc2cc(-c3ccc(OCC4CC4)nc3)c(F)cc2C1NC(=O)O[C@@H]1CN2CCC1CC2` (stereo partly drawn) [Example 363, (S)-quinuclidin-3-yl (5-(6-(cyclopropylmethoxy)pyridin-3-yl)-6-fluoro-2,2-dimethyl-2,3-dihydro-1H-inden-1-yl)carbamate], the half-inhibitory concentration (IC50) was 0.0087 µM.

The molecule `COc1ccc(Cl)cc1-c1cc2c(cc1F)C(NC(=O)O[C@@H]1CN3CCC1CC3)C(C)(C)C2` (stereo partly drawn) [Example 364, (S)-quinuclidin-3-yl (5-(5-chloro-2-methoxyphenyl)-6-fluoro-2,2-dimethyl-2,3-dihydro-1H-inden-1-yl)carbamate] had an IC50 of 0.0172 µM.

As to `CCCCc1ccc(-c2cc3c(cc2F)C(NC(=O)O[C@@H]2CN4CCC2CC4)C(C)(C)C3)cc1` (stereo partly drawn) [Example 365, (S)-quinuclidin-3-yl (5-(4-butylphenyl)-6-fluoro-2,2-dimethyl-2,3-dihydro-1H-inden-1-yl)carbamate], the IC50 came out at 0.0024 µM.

Molecule `COc1c(C)cc(-c2cc3c(cc2F)C(NC(=O)O[C@@H]2CN4CCC2CC4)C(C)(C)C3)cc1C` (stereo partly drawn) [Example 366, (S)-quinuclidin-3-yl (6-fluoro-5-(4-methoxy-3,5-dimethylphenyl)-2,2-dimethyl-2,3-dihydro-1H-inden-1-yl)carbamate] registered a 50% inhibitory concentration (IC50) of 0.0794 µM.

As for `CCOc1c(C)cc(-c2cc3c(cc2F)C(NC(=O)O[C@@H]2CN4CCC2CC4)C(C)(C)C3)cc1C` (stereo partly drawn) [Example 367, (S)-quinuclidin-3-yl (5-(4-ethoxy-3,5-dimethylphenyl)-6-fluoro-2,2-dimethyl-2,3-dihydro-1H-inden-1-yl)carbamate], the IC50 came to 0.0682 µM. The IC50 values of the last two molecules are within 1.5-fold of each other.

In turn, `CCCCOc1c(C)cc(-c2cc3c(cc2F)C(NC(=O)O[C@@H]2CN4CCC2CC4)C(C)(C)C3)cc1C` (stereo partly drawn) [Example 368, (S)-quinuclidin-3-yl (5-(4-butoxy-3,5-dimethylphenyl)-6-fluoro-2,2-dimethyl-2,3-dihydro-1H-inden-1-yl)carbamate] registered an IC50 of 0.0229 µM.

As to `COc1cc(-c2cc3c(cc2F)C(NC(=O)O[C@@H]2CN4CCC2CC4)C(C)(C)C3)ccn1` (stereo partly drawn) [Example 369, (S)-quinuclidin-3-yl (6-fluoro-5-(2-methoxypyridin-4-yl)-2,2-dimethyl-2,3-dihydro-1H-inden-1-yl)carbamate], the IC50 was found to be 0.172 µM. This IC50 is about 7.5-fold higher than that of the molecule before.

The molecule `CC1(C)Cc2cc(-c3cccc(F)c3)c(F)cc2C1NC(=O)O[C@@H]1CN2CCC1CC2` (stereo partly drawn) [Example 370, (S)-quinuclidin-3-yl (6-fluoro-5-(3-fluorophenyl)-2,2-dimethyl-2,3-dihydro-1H-inden-1-yl)carbamate] came in with an IC50 of 0.0393 µM. Against the preceding molecule, the IC50 is about 4.4-fold lower.

In the case of `CCc1cccc(-c2cc3c(cc2F)C(NC(=O)O[C@@H]2CN4CCC2CC4)C(C)(C)C3)c1` (stereo partly drawn) [Example 371, (S)-quinuclidin-3-yl (5-(3-ethylphenyl)-6-fluoro-2,2-dimethyl-2,3-dihydro-1H-inden-1-yl)carbamate], the half-inhibitory concentration (IC50) is 0.0248 µM.

`CC(C)Cc1cccc(-c2cc3c(cc2F)C(NC(=O)O[C@@H]2CN4CCC2CC4)C(C)(C)C3)c1` (stereo partly drawn) [Example 372, (S)-quinuclidin-3-yl (6-fluoro-5-(3-isobutylphenyl)-2,2-dimethyl-2,3-dihydro-1H-inden-1-yl)carbamate] came in with a half-inhibitory concentration (IC50) of 0.0462 µM.

As to `CC(C)c1cccc(-c2cc3c(cc2F)C(NC(=O)O[C@@H]2CN4CCC2CC4)C(C)(C)C3)c1` (stereo partly drawn) [Example 373, (S)-quinuclidin-3-yl (6-fluoro-5-(3-isopropylphenyl)-2,2-dimethyl-2,3-dihydro-1H-inden-1-yl)carbamate], the half-maximal inhibitory concentration (IC50) turned out to be 0.0312 µM.

For `CC(C)(C)c1cccc(-c2cc3c(cc2F)C(NC(=O)O[C@@H]2CN4CCC2CC4)C(C)(C)C3)c1` (stereo partly drawn) [Example 374, (S)-quinuclidin-3-yl (5-(3-(tert-butyl)phenyl)-6-fluoro-2,2-dimethyl-2,3-dihydro-1H-inden-1-yl)carbamate], the IC50 came to 0.0265 µM.

With `COc1cccc(-c2cc3c(cc2F)C(NC(=O)O[C@@H]2CN4CCC2CC4)C(C)(C)C3)c1` (stereo partly drawn) [Example 375, (S)-quinuclidin-3-yl (6-fluoro-5-(3-methoxyphenyl)-2,2-dimethyl-2,3-dihydro-1H-inden-1-yl)carbamate], the IC50 turned out to be 0.023 µM. The IC50 values of the last two molecules are within 1.5-fold of each other.

Regarding `CCCOc1cccc(-c2cc3c(cc2F)C(NC(=O)O[C@@H]2CN4CCC2CC4)C(C)(C)C3)c1` (stereo partly drawn) [Example 377, (S)-quinuclidin-3-yl (6-fluoro-2,2-dimethyl-5-(3-propoxyphenyl)-2,3-dihydro-1H-inden-1-yl)carbamate], the IC50 was determined as 0.0355 µM.

`CC(C)Oc1cccc(-c2cc3c(cc2F)C(NC(=O)O[C@@H]2CN4CCC2CC4)C(C)(C)C3)c1` (stereo partly drawn) [Example 378, (S)-quinuclidin-3-yl (6-fluoro-5-(3-isopropoxyphenyl)-2,2-dimethyl-2,3-dihydro-1H-inden-1-yl)carbamate] displayed an IC50 of 0.0875 µM.

In the case of `CCCCOc1cccc(-c2cc3c(cc2F)C(NC(=O)O[C@@H]2CN4CCC2CC4)C(C)(C)C3)c1` (stereo partly drawn) [Example 379, (S)-quinuclidin-3-yl (5-(3-butoxyphenyl)-6-fluoro-2,2-dimethyl-2,3-dihydro-1H-inden-1-yl)carbamate], the IC50 is 0.0158 µM.
